Assay results taken from patent publication US8852629B2, “Drug delivery system for hydrophobic drugs” (Valeant Pharmaceuticals International, Inc., priority 2001, dated 2014).

Assays:
[1] = storage stability (potency) of cryodesiccated MA composition; assay type: physicochemical; conditions: room temperature
Text: Once formulated, the MA of the invention may be freeze-dried for long-term storage if desired. […] If the composition is freeze-dried, it may be packed in vials for subsequent reconstitution with a suitable aqueous solution, such as sterile water or sterile water containing a saccharide and/or other suitable excipients, just prior to use. For example, reconstitution may be by simply adding water for injection just prior to administration.

[2] = lability in an aqueous environment; assay type: physicochemical; conditions: must be lyophilized for storage
Text: It has been a challenge to find suitable pharmaceutical formulations for hydrophobic polypyrrolic macrocyle based photosensitizers that can be filter sterilized and freeze dried, and can also be rapidly reconstituted in an aqueous medium prior to administration, while retaining a small particle size after rehydration. Photosensitive compounds such as verteporfin (BPD-MA) and QLT 0074 (EA6) must be lyophilized for storage, because they are labile in an aqueous environment.

With “benzoporphyrin derivative monoacid ring A [BPD-MA]” the “period over which potency was maintained” value [1] was “at least nine” and the “stability in an aqueous environment” value [2] was “labile”.
